Molecules are shown by their SMILES.

This experiment relates to human EPO expression. Description: In vivo assay: human EPO expression in plasma after IV injection of LNP containing human EPO mRNA (human EPO ELISA). As to conditions: 0.5 mg/kg LNP with human EPO mRNA, 4 h post dosing, Balb/C mice plasma (n = 4-5), cationic lipid at 55 mol %, 1.6 mol % PEG2000-C-DMA, 33% cholesterol, 11% DSPC. Further details: species or system female Balb/C mice. The protocol:
Lipid stocks were prepared (about 7 mg/mL total lipid content) in 100% ethanol, using the lipid identities and molar ratios described. The mRNA was diluted in acetate pH 5 and nuclease-free water to reach a concentration of 0.366 mg/mL mRNA in 100 mM acetate pH 5. Equal volumes of each solution were blended at 400 mL/min in a T-connector, and diluted with about 4 volumes of PBS, pH 7.4, using the direct dilution method described in U.S. Pat. No. 9,404,127. Formulations were then placed in Slide-A-Lyzer dialysis units (MWCO 10,000) and were dialyzed overnight 10 mM Tris, 500 mM NaCl pH 8 (Tris/NaCl buffer). Following dialysis the formulations were concentrated to about 0.6 mg/mL using VivaSpin concentrator units (MWCO 100,000) and then filtered through a 0.2 um syringe filter.
The various lipids of the present invention were formulated in LNP compositions with the following molar ratios: DSPC (11%):Chol (33%):PEG2000-C-DMA (1.6%):Lipid X (55%). A composition was generated comprising the following components: • (a) nucleic acid; • (b) a mixture of cholesterol and DSPC; • (c) a conjugated lipid of formula: […]
Generally, the LNP were injected intravenously at 0.5 mg/kg to female Balb/C mice, 5-8 weeks old and blood was collected at 4-6 hours post dosing; blood is collected into K2EDTA and processed to plasma, then stored frozen at −80° C. until analysis. Activity was assayed by testing the plasma for human EPO expression using an human EPO ELISA kit either from StemCell (catalogue #01630) or R&D Systems (catalogue DEP00) following the manufacturer's instructions.
A general note: In an ELISA, binding on a coated surface is turned into a signal by an enzyme label.
`CCCCC/C=C\CCCO[Si](CCCCN1CCC(CO)CC1)(OCCC/C=C\CCCCC)OCCC/C=C\CCCCC` [Example 9] came in with an EPO of 37927 mU/mL. To `CCCCC/C=C\CCCO[Si](CCCCCCN(C)C)(OCCC/C=C\CCCCC)OCCC/C=C\CCCCC` [Example 21] belongs 1470419 mU/mL; to `CCCCCCCCCCO[Si](CCCCN(C)C)(OCCCCCCCCCC)OCCCCCCCCCC` [Example 11], 256974 mU/mL; to `CCCCC/C=C\CCCO[Si](CCCCN(C)C)(OCCC/C=C\CCCCC)OCCC/C=C\CCCCC` [Example 4], 1300807 mU/mL.

As to `CCCCC/C=C\CCCC(CCC/C=C\CCCCC)CO[Si](CCCN(C)C)(OCC(CCC/C=C\CCCCC)CCC/C=C\CCCCC)OCC(CCC/C=C\CCCCC)CCC/C=C\CCCCC` [Example 22], the EPO came out at 15075 mU/mL. To `CN(C)CCCC[Si](OCC12CC3CC(CC(C3)C1)C2)(OCC12CC3CC(CC(C3)C1)C2)OCC12CC3CC(CC(C3)C1)C2` [Example 17] belongs 226593 mU/mL. `CCCCC/C=C\CCCO[Si](CCCCN(C)CCO)(OCCC/C=C\CCCCC)OCCC/C=C\CCCCC` [Example 8] registered an EPO of 30446 mU/mL.

In the case of `CCCCC/C=C\CCCO[Si](CCCN(C)C)(OCCC/C=C\CCCCC)OCCC/C=C\CCCCC` [Example 2], the EPO came to 144176 mU/mL.

`C=C(C)C1CC=C(CO[Si](CCCCN(C)C)(OCC2=CCC(C(=C)C)CC2)OCC2=CCC(C(=C)C)CC2)CC1` (stereo not shown) [Example 23]: the EPO stood at 17488 mU/mL. `CCCCC/C=C\CCCC(CCC/C=C\CCCCC)O[Si](CCCCN1CCC(CO)CC1)(OC(CCC/C=C\CCCCC)CCC/C=C\CCCCC)OC(CCC/C=C\CCCCC)CCC/C=C\CCCCC` [Example 15]: the EPO is 18385 mU/mL. Turning to `CCCCC/C=C\CCCO[Si](CCCCCN(C)C)(OCCC/C=C\CCCCC)OCCC/C=C\CCCCC` [Example 20], the EPO stood at 2242992 mU/mL. As for `CCCCCCCCCO[Si](CCCN(C)C)(OCCCCCCCCC)OCCCCCCCCC` [Example 6], the EPO is reported as 25596 mU/mL. Regarding `CCCCCCC(CCCC)CO[Si](CCCCN(C)C)(OCC(CCCC)CCCCCC)OCC(CCCC)CCCCCC` (stereo not shown) [Example 19], the EPO is 47218 mU/mL.

The record behind these values is patent publication US12350383B2, “Cationic lipids containing silicon” (ARBUTUS BIOPHARMA CORPORATION, priority 2018, dated 2025).
